Reference: patent US20260297081A1, “COMPOUNDS AND METHODS OF TREATING CANCERS” (Cullgen Inc., priority 2023, published 2026)

Key:
Format in all cases: cell-based
[1] = test system: Calu-1 cells; assay: Anti-proliferation (viability) of NSCLC Calu-1 cells, 3 days (Table 7, FIG. 2B); conditions: Homo sapiens, 72 h; Calu-1 cells, 3 days, 10-point serial dilution; read-out: GI IC50 in Calu-1
In short: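 Viability after a 10-point dilution series of heterobifunctional compounds, with exposure of 6 days for ER+ breast T47D cells and 3 days for NSCLC Calu-1 cells.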

[2] = test system: MCF7 cells; assay: Anti-proliferation (viability) of MCF7 cells (Table 7, FIG. 2B); conditions: Homo sapiens, MCF7, MCF7 cells, 3-6 days, 10-point serial dilution; read-out: GI IC50 in MCF-7
[3] = target: CDK4 (Homo sapiens, UniProt P11802+Q16531); assay: HiBiT detection of HiBiT-tagged CDK4 protein level in MCF7 cells, 16 hours (Table 8); design: expressed in transfected cells; host or cells: MCF7; conditions: MCF7 cells stably expressing HiBiT tagged target proteins; for activity at 0.01 µM: 10 nM, read-out: % CDK4 Relative Level (10 nM); for activity at 0.1 µM: 100 nM, read-out: % CDK4 Relative Level (100 nM)
Chain of CDK4 (P11802 whole entry): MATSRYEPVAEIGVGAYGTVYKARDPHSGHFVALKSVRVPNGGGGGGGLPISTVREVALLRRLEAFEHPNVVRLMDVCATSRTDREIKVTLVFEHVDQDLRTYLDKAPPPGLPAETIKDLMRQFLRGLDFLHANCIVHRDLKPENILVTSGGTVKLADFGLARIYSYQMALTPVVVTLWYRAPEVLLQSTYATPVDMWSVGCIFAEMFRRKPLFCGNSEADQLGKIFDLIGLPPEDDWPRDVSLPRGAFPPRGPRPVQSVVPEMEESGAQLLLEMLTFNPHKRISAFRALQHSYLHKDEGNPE
Chain of CDK4 (P24385 whole entry partner): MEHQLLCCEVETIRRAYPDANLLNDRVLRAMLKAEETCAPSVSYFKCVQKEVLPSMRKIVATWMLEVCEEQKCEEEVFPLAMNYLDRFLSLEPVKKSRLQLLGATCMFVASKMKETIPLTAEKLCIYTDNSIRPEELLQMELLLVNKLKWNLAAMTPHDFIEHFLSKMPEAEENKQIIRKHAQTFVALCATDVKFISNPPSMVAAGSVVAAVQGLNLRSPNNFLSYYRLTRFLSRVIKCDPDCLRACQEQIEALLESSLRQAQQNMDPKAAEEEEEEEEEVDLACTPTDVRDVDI
Chain of CDK4 (Q16531 2-1140 limits assumed): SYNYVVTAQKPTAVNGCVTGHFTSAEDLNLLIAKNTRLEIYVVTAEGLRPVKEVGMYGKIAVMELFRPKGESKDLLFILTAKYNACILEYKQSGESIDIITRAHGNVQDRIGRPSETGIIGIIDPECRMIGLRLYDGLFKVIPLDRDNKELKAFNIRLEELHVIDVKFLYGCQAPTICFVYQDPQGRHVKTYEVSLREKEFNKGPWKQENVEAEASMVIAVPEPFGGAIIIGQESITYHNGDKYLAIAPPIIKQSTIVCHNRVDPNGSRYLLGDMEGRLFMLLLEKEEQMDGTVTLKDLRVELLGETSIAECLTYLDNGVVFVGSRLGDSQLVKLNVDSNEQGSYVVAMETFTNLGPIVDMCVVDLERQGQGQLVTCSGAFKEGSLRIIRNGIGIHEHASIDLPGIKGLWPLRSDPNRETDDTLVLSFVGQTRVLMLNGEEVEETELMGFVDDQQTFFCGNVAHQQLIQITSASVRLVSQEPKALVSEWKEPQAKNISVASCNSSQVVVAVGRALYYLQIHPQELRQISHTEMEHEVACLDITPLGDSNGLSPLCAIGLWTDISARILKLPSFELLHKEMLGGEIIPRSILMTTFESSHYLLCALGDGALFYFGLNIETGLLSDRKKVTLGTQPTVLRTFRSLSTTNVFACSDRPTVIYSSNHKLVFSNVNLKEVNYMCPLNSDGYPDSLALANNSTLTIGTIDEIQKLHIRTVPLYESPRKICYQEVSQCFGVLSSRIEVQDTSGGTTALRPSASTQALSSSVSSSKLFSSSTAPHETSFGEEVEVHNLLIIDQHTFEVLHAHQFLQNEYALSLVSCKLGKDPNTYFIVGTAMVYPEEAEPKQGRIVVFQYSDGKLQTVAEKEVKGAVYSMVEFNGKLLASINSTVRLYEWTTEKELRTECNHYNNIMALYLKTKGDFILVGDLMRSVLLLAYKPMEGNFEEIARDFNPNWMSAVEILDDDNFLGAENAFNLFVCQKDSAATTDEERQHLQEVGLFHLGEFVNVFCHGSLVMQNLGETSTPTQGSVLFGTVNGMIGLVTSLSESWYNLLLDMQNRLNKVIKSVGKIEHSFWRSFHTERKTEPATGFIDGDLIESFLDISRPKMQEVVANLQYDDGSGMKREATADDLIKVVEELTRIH
Description: HiBiT detection system quantitatively measures total amounts of HiBiT-tagged proteins using a luminescent based method. MCF7 cells stably expressing HiBiT tagged target proteins were treated with heterobifunctional compounds at indicated concentrations for 16 hours, then lysed with Nano-Glo HiBiT Lytic detection reagents.

| SMILES | IC50 [1] | IC50 [2] | activity at 0.01 µM [3] | activity at 0.1 µM [3] |
| --- | --- | --- | --- | --- |
| [2H]C([2H])([2H])Nc1ccc(C(=O)Nc2ccc(N(C)C)nn2)c(NC2CC3(C2)CN(C(=O)C(C)N2CCN(Cc4ccc(Nc5ncc6c(C)c(C(C)=O)c(=O)n(C7CCCC7)c6n5)nc4)CC2)C3)n1 (centres unmarked) [CPD-456, 2-((2-(2-(4-((6-((6-acetyl-8-cyclopentyl-5-methyl-7-oxo-7,8-dihydropyrido[2,3-d]pyrimidin-2-yl)amino)pyridin-3-yl)methyl)piperazin-1-yl)propanoyl)-2-azaspiro[3.3]heptan-6-yl)amino)-N-(6-(dimethylamino)pyridazin-3-yl)-6-((methyl-d3)amino)nicotinamide] | ≤ 10 nM | < 50 nM | 55 to 85% | 55 to 85% |
| CC(=O)c1c(C)c2cnc(Nc3ccc(N4CCN(C5CCN(C(=O)N6CCC(Nc7nc(NC(C)C)ccc7C(=O)Nc7ccc(N(C)C)nn7)CC6)C5)CC4)cn3)nc2n(C2CCCC2)c1=O (centres unmarked) [CPD-469, 2-((1-(3-(4-(6-((6-acetyl-8-cyclopentyl-5-methyl-7-oxo-7,8-dihydropyrido[2,3-d]pyrimidin-2-yl)amino)pyridin-3-yl)piperazin-1-yl)pyrrolidine-1-carbonyl)piperidin-4-yl)amino)-N-(6-(dimethylamino)pyridazin-3-yl)-6-(isopropylamino)nicotinamide] | ≤ 10 nM | < 50 nM | ≤ 55% | ≤ 55% |
| CC(=O)c1c(C)c2cnc(Nc3ccc(CN4CCN(CC(=O)NC5CC6(C5)CC(Nc5nc(NC(C)C)ccc5C(=O)Nc5ccc(N(C)C)nn5)C6)CC4)cn3)nc2n(C2CCCC2)c1=O (centres unmarked) [CPD-472, 2-((6-(2-(4-((6-((6-acetyl-8-cyclopentyl-5-methyl-7-oxo-7,8-dihydropyrido[2,3-d]pyrimidin-2-yl)amino)pyridin-3-yl)methyl)piperazin-1-yl)acetamido)spiro[3.3]heptan-2-yl)amino)-N-(6-(dimethylamino)pyridazin-3-yl)-6-(isopropylamino)nicotinamide] | ≤ 10 nM | < 50 nM | 55 to 85% | ≤ 55% |
| CC(=O)c1c(C)c2cnc(Nc3ccc(CN4CCN(CC(=O)NC5CCC(Nc6nc(NC(C)C)ccc6C(=O)Nc6ccc(N(C)C)nn6)CC5)CC4)cn3)nc2n(C2CCCC2)c1=O (centres unmarked) [CPD-473, 2-((4-(2-(4-((6-((6-acetyl-8-cyclopentyl-5-methyl-7-oxo-7,8-dihydropyrido[2,3-d]pyrimidin-2-yl)amino)pyridin-3-yl)methyl)piperazin-1-yl)acetamido)cyclohexyl)amino)-N-(6-(dimethylamino)pyridazin-3-yl)-6-(isopropylamino)nicotinamide] | ≤ 10 nM | < 50 nM | > 85% | > 85% |
| CC(=O)c1c(C)c2cnc(Nc3ccc(N4CCN(C5CCN(C(=O)[C@H]6CC[C@H](Nc7nc(NC(C)C)ccc7C(=O)Nc7cc(C)n(C)n7)CC6)C5)CC4)cn3)nc2n(C2CCCC2)c1=O (some centres unmarked) [CPD-478, 2-((4-(3-(4-(6-((6-acetyl-8-cyclopentyl-5-methyl-7-oxo-7,8-dihydropyrido[2,3-d]pyrimidin-2-yl)amino)pyridin-3-yl)piperazin-1-yl)pyrrolidine-1-carbonyl)cyclohexyl)amino)-N-(1,5-dimethyl-1H-pyrazol-3-yl)-6-(isopropylamino)nicotinamide] | ≤ 10 nM | < 50 nM | > 85% | 55 to 85% |
| CC(=O)c1c(C)c2cnc(Nc3ccc(N4CCN(C5CCN(C(=O)[C@H]6CC[C@H](Nc7nc(NC(C)C)ccc7C(=O)Nc7cn(C)c(C8CC8)n7)CC6)C5)CC4)cn3)nc2n(C2CCCC2)c1=O (some centres unmarked) [CPD-481, 2-((4-(3-(4-(6-((6-acetyl-8-cyclopentyl-5-methyl-7-oxo-7,8-dihydropyrido[2,3-d]pyrimidin-2-yl)amino)pyridin-3-yl)piperazin-1-yl)pyrrolidine-1-carbonyl)cyclohexyl)amino)-N-(2-cyclopropyl-1-methyl-1H-imidazol-4-yl)-6-(isopropylamino)nicotinamide] | ≤ 10 nM | < 50 nM | > 85% | > 85% |
| CC(=O)c1c(C)c2cnc(Nc3ccc(CN4CCN(CC(=O)N5CCC6(CCC(Nc7nc(NC(C)C)ccc7C(=O)Nc7ccc(N(C)C)nn7)C6)C5)CC4)cn3)nc2n(C2CCCC2)c1=O (centres unmarked) [CPD-487, 2-((2-(2-(4-((6-((6-acetyl-8-cyclopentyl-5-methyl-7-oxo-7,8-dihydropyrido[2,3-d]pyrimidin-2-yl)amino)pyridin-3-yl)methyl)piperazin-1-yl)acetyl)-2-azaspiro[4.4]nonan-7-yl)amino)-N-(6-(dimethylamino)pyridazin-3-yl)-6-(isopropylamino)nicotinamide] | ≤ 10 nM | < 50 nM | 55 to 85% | 55 to 85% |
| [2H]C([2H])([2H])Nc1ccc(C(=O)Nc2ccc(N(C)C)nn2)c(NC2CCN(CC(=O)N3CCN(Cc4ccc(Nc5ncc6c(C)c(C(C)=O)c(=O)n(C7CCCC7)c6n5)nc4)CC3)CC2)n1 [CPD-491] | ≤ 10 nM | < 50 nM | > 85% | > 85% |
| CCc1ccc(C(=O)Nc2ccc(N(C)C)nn2)c(N[C@H]2CC[C@H](C(=O)N3CCC(N4CCN(c5ccc(Nc6ncc7c(C)c(C(C)=O)c(=O)n(C8CCCC8)c7n6)nc5)CC4)C3)CC2)n1 (some centres unmarked) [CPD-492, 2-((4-(3-(4-(6-((6-acetyl-8-cyclopentyl-5-methyl-7-oxo-7,8-dihydropyrido[2,3-d]pyrimidin-2-yl)amino)pyridin-3-yl)piperazin-1-yl)pyrrolidine-1-carbonyl)cyclohexyl)amino)-N-(6-(dimethylamino)pyridazin-3-yl)-6-ethylnicotinamide] | ≤ 10 nM | < 50 nM | > 85% | > 85% |
| CC(=O)c1c(C)c2cnc(Nc3ccc(N4CCN(C5CCN(C(=O)[C@H]6CC[C@H](Nc7nc(C(C)C)ccc7C(=O)Nc7ccc(N(C)C)nn7)CC6)C5)CC4)cn3)nc2n(C2CCCC2)c1=O (stereo partly drawn) [CPD-499, 2-((trans-4-(3-(4-(6-((6-acetyl-8-cyclopentyl-5-methyl-7-oxo-7,8-dihydropyrido[2,3-d]pyrimidin-2-yl)amino)pyridin-3-yl)piperazin-1-yl)pyrrolidine-1-carbonyl)cyclohexyl)amino)-N-(6-(dimethylamino)pyridazin-3-yl)-6-isopropylnicotinamide] | ≤ 10 nM | < 50 nM | > 85% | 55 to 85% |
| CC(=O)c1c(C)c2cnc(Nc3ccc(CN4CCN(CC(=O)NC5CCC(Nc6nc(NC(C)C)ccc6C(=O)Nc6ccc(N(C)C)nn6)C5)CC4)cn3)nc2n(C2CCCC2)c1=O (centres unmarked) [CPD-501, 2-((3-(2-(4-((6-((6-acetyl-8-cyclopentyl-5-methyl-7-oxo-7,8-dihydropyrido[2,3-d]pyrimidin-2-yl)amino)pyridin-3-yl)methyl)piperazin-1-yl)acetamido)cyclopentyl)amino)-N-(6-(dimethylamino)pyridazin-3-yl)-6-(isopropylamino)nicotinamide] | ≤ 10 nM | < 50 nM | > 85% | > 85% |
| CC(=O)c1c(C)c2cnc(Nc3ccc(N4CCN(CCC(=O)NC56CC(Nc7nc(NC(C)C)ccc7C(=O)Nc7ccc(N(C)C)nn7)(C5)C6)CC4)cn3)nc2n(C2CCCC2)c1=O [CPD-503, 2-((3-(3-(4-(6-((6-acetyl-8-cyclopentyl-5-methyl-7-oxo-7,8-dihydropyrido[2,3-d]pyrimidin-2-yl)amino)pyridin-3-yl)piperazin-1-yl)propanamido)bicyclo[1.1.1]pentan-1-yl)amino)-N-(6-(dimethylamino)pyridazin-3-yl)-6-(isopropylamino)nicotinamide] | ≤ 10 nM | < 50 nM | 55 to 85% | 55 to 85% |
| CC(=O)c1c(C)c2cnc(Nc3ccc(N4CCC(N(C)CC(=O)NC56CC(Nc7nc(NC(C)C)ccc7C(=O)Nc7ccc(N(C)C)nn7)(C5)C6)CC4)cn3)nc2n(C2CCCC2)c1=O [CPD-505, 2-((3-(2-((1-(6-((6-acetyl-8-cyclopentyl-5-methyl-7-oxo-7,8-dihydropyrido[2,3-d]pyrimidin-2-yl)amino)pyridin-3-yl)piperidin-4-yl)(methyl)amino)acetamido)bicyclo[1.1.1]pentan-1-yl)amino)-N-(6-(dimethylamino)pyridazin-3-yl)-6-(isopropylamino)nicotinamide] | ≤ 10 nM | < 50 nM | > 85% | > 85% |
| CC(=O)c1c(C)c2cnc(Nc3ccc(N4CCN(CCNC(=O)C56CC(Nc7nc(NC(C)C)ccc7C(=O)Nc7ccc(N(C)C)nn7)(C5)C6)CC4)cn3)nc2n(C2CCCC2)c1=O [CPD-506, 2-((3-((2-(4-(6-((6-acetyl-8-cyclopentyl-5-methyl-7-oxo-7,8-dihydropyrido[2,3-d]pyrimidin-2-yl)amino)pyridin-3-yl)piperazin-1-yl)ethyl)carbamoyl)bicyclo[1.1.1]pentan-1-yl)amino)-N-(6-(dimethylamino)pyridazin-3-yl)-6-(isopropylamino)nicotinamide] | ≤ 10 nM | < 50 nM | > 85% | > 85% |
